Measured values: patent US9670227B2, “Thienopyrimidine derivatives, a process for their preparation and pharmaceutical compositions containing them” (LES LABORATOIRES SERVIER, priority 2013, dated 2017)

What was measured:
Mcl-1 protein = Mcl-1 protein (UniProtKB primary accession number: Q07820) (Homo sapiens, UniProt Q07820); assay: Inhibition of Mcl-1 by fluorescence polarisation, Method 1; assay type: binding; settings: fluorescence polarisation; Method 1, or Method 2; read-out: IC50 (M) Mcl-1 FP
In short: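 FP readout of relative binding potency. Mcl-1 5 nM final, fluorescein-labelled ligand 1 nM final; buffer 10 mM HEPES, 150 mM NaCl, 0.05% Tween 20, pH 7.4; 11-pt dilution series, 5% DMSO final.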

[1] = system: H929 multiple myeloma tumour line; assay: In vitro cytotoxicity, Microculture Tetrazolium Assay; assay type: cell-based; settings: Homo sapiens, NCI-H929, 48 h, H929 cells, 48 hours exposure, MTT; read-out: IC50 (μM) MTT H929
Experimental: The cytotoxicity studies were carried out on the H929 multiple myeloma tumour line.
The cells are distributed onto microplates and exposed to the test compounds for 48 hours.

Sequence of Mcl-1 protein (Q07820 whole entry): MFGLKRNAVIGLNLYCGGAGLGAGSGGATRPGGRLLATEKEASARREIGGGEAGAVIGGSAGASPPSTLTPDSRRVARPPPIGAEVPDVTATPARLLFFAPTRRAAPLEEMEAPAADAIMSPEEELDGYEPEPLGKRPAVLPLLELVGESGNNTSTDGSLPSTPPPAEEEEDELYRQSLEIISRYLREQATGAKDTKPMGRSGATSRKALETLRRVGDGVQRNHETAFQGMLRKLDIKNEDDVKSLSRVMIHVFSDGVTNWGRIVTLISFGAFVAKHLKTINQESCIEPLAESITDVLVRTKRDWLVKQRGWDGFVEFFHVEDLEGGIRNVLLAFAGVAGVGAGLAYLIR

Row | IC50 (Mcl-1 protein) | Structure (SMILES) | IC50 [1]
1 | 4.1e-08 M | COc1ccccc1CC(Oc1ncnc2sc(-c3cccc(N(C)C)c3)c(-c3ccc(OCCN4CCN(C)CC4)c(Cl)c3C)c12)C(=O)O [Example 552, (2R)-2-[((5Sa)-5-{3-chloro-2-methyl-4-[2-(4-methylpiperazin-1-yl)ethoxy]phenyl}-6-[3-(dimethylamino)phenyl]thieno[2,3-d]pyrimidin-4-yl)oxy]-3-(2-methoxyphenyl)propanoic acid] | 0.784 µM
2 | 1.1e-08 M | COc1ccccc1CC(Oc1ncnc2sc(-c3cccc(O)c3)c(-c3ccc(OCCN4CCN(C)CC4)c(Cl)c3C)c12)C(=O)O [Example 553, (2R)-2-{[(5Sa)-5-{3-chloro-2-methyl-4-[2-(4-methylpiperazin-1-yl)ethoxy]phenyl}-6-(3-hydroxyphenyl)thieno[2,3-d]pyrimidin-4-yl]oxy}-3-(2-methoxyphenyl)propanoic acid] | 0.585 µM
3 | 2.4e-08 M | COc1cccc(-c2sc3ncnc(OC(Cc4ccccc4OC)C(=O)O)c3c2-c2ccc(OCCN3CCN(C)CC3)c(Cl)c2C)c1 [Example 554, (2R)-2-{[(5Sa)-5-{3-chloro-2-methyl-4-[2-(4-methylpiperazin-1-yl)ethoxy]phenyl}-6-(3-methoxyphenyl)thieno[2,3-d]pyrimidin-4-yl]oxy}-3-(2-methoxyphenyl)propanoic acid] | 0.177 µM
4 | 4.5e-09 M | CCOc1cccc(-c2sc3ncnc(OC(Cc4ccccc4OC)C(=O)O)c3c2-c2ccc(OCCN3CCN(C)CC3)c(Cl)c2C)c1 [Example 557, (2R)-2-{[(5Sa)-5-{3-chloro-2-methyl-4-[2-(4-methylpiperazin-1-yl)ethoxy]phenyl}-6-(3-ethoxyphenyl)thieno[2,3-d]pyrimidin-4-yl]oxy}-3-(2-methoxyphenyl)propanoic acid] | 0.475 µM
5 | 5.9e-08 M | COc1ccccc1CC(Oc1ncnc2sc(-c3cccc(SC)c3)c(-c3ccc(OCCN4CCN(C)CC4)c(Cl)c3C)c12)C(=O)O [Example 558, (2R)-2-[((5Sa)-5-{3-chloro-2-methyl-4-[2-(4-methylpiperazin-1-yl)ethoxy]phenyl}-6-[3-(methylsulfanyl)phenyl]thieno[2,3-d]pyrimidin-4-yl)oxy]-3-(2-methoxyphenyl)propanoic acid] | 0.742 µM
6 | 5.2e-09 M | COc1ccccc1CC(Oc1ncnc2sc(-c3cccc(Cl)c3F)c(-c3ccc(OCCN4CCN(C)CC4)c(Cl)c3C)c12)C(=O)O [Example 559, (2R)-2-{[6-(3-chloro-2-fluorophenyl)-(5Sa)-5-{3-chloro-2-methyl-4-[2-(4-methylpiperazin-1-yl)ethoxy]phenyl}thieno[2,3-d]pyrimidin-4-yl]oxy}-3-(2-methoxyphenyl)propanoic acid] | 0.293 µM
7 | 1.1e-08 M | COc1ccccc1CC(Oc1ncnc2sc(-c3cccc(F)c3F)c(-c3ccc(OCCN4CCN(C)CC4)c(Cl)c3C)c12)C(=O)O [Example 560, (2R)-2-{[(5Sa)-5-{3-chloro-2-methyl-4-[2-(4-methylpiperazin-1-yl)ethoxy]phenyl}-6-(2,3-difluorophenyl)thieno[2,3-d]pyrimidin-4-yl]oxy}-3-(2-methoxyphenyl)propanoic acid] | 0.128 µM
8 | 2.7e-08 M | COc1ccccc1CC(Oc1ncnc2sc(-c3cccc(OC)c3F)c(-c3ccc(OCCN4CCN(C)CC4)c(Cl)c3C)c12)C(=O)O [Example 561, (2R)-2-{[(5Sa)-5-{3-chloro-2-methyl-4-[2-(4-methylpiperazin-1-yl)ethoxy]phenyl}-6-(2-fluoro-3-methoxyphenyl)thieno[2,3-d]pyrimidin-4-yl]oxy}-3-(2-methoxyphenyl)propanoic acid] | 0.61 µM
9 | 7.4e-08 M | COc1ccccc1CC(Oc1ncnc2sc(-c3cccc4occc34)c(-c3ccc(OCCN4CCN(C)CC4)c(Cl)c3C)c12)C(=O)O [Example 563, (2R)-2-{[6-(1-benzofuran-4-yl)-(5Sa)-5-{3-chloro-2-methyl-4-[2-(4-methylpiperazin-1-yl)ethoxy]phenyl}thieno[2,3-d]pyrimidin-4-yl]oxy}-3-(2-methoxyphenyl)propanoic acid] | 1.16 µM
